Literature values in patent US6337320B1, “Reparatives for ultraviolet radiation skin damage” (Thione International, Inc., priority 1996, dated 2002).

Legend:
[1] = tested on: vitamin E deficient chicks
[2] = oral, prolonged periods

C[Se]CC[C@H](N)C(=O)O [selenomethionine]
in vivo lipid peroxidation in tissues [1]: inhibits | protection against acute UV damage to the skin, as measured by the minimal erythema dose (human subjects; eight women, topical lotion 0.002%, 0.02% and 0.05%): effective | plasma levels of selenium (human subjects; volunteers, topical application): remained unchanged | concentration of selenium in skin in areas of topical application (mice; lotion, topical vs comparable oral doses): greater than those of the experimental animals given comparable oral doses | skin damage by ultraviolet irradiation (inflammation, pigmentation, onset and incidence of skin cancers) (mice; mice treated with selenomethionine, ultraviolet irradiation): significantly less skin damage | selenium toxicity (mice; mouse, in vivo, po): no evidence of selenium toxicity | skin levels of selenium dependent glutathione peroxidase (patients with psoriasis; normal and psoriatic skin): unchanged | increase in blood levels post treatment (patients with psoriasis; psoriasis patients with normal pretreatment selenium blood levels): 40% | number of CD4+T-cells (patients with psoriasis; reticular dermis of the psoriatic lesions): statistically significant increase

[Se] [selenium]
dose at which selenium toxicities occur [2]: > 4000 micrograms per day

(−)epigallo catechin gallate [EGCG]
hydrogen peroxide formation (human leukocytes): inhibits
